Molecules are shown by their SMILES.

The target in the assay is Subtilisin-like protease 1 (Plasmodium falciparum, UniProt O61142). Briefly: Inhibition of Plasmodium falciparum SUB1 by fluorimetric assay.
Chain of Subtilisin-like protease 1 (O61142 220-690 limits assumed): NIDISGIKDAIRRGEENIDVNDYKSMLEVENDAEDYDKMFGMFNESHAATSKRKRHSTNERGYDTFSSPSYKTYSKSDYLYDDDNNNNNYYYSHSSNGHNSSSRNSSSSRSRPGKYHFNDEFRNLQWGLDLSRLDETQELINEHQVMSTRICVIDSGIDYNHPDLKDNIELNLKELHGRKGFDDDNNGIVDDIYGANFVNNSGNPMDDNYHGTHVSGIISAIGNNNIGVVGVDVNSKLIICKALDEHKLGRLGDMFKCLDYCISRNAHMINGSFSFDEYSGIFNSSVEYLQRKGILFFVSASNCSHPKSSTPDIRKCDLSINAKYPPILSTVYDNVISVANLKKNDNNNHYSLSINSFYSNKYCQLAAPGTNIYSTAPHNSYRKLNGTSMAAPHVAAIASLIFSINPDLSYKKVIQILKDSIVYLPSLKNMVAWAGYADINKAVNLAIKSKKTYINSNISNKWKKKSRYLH
`O=[N+]([O-])c1ccc(CN=Nc2nc3ccccc3[nH]2)cc1` had an IC50 above 50 µM.

For `O=[N+]([O-])c1ccc(CN=Nc2c3c(nc4ccccc24)CCCC3)cc1`, the IC50 was above 50 µM.

In the case of `Cc1cc(N=NCc2ccccc2[N+](=O)[O-])c2cc3c(cc2n1)OCO3`, inhibition was half-maximal at 40 µM (IC50).

Compound `Cc1cc(N=NCc2ccc([N+](=O)[O-])cc2)c2cc3c(cc2n1)OCO3` came in with an IC50 of 20 µM.

Consider `COc1ccc2nc(C)cc(N=NCc3ccc([N+](=O)[O-])cc3)c2c1` [TCMDC-123970], for which the IC50 stood at 20 µM.

With `Cc1cc(N=NCc2ccc(C#N)cc2)c2cc3c(cc2n1)OCO3`, the IC50 was determined as 40 µM.

What is called IC50 is the concentration that gives 50% inhibition. A lower IC50 goes with inhibition by little substance.

These data come from BindingDB's records for doi:10.1016/j.bmcl.2012.06.023 (University of Siena, 2012).
